Test results reported in patent US11619628B2, “Device and determination system using same” (Osaka University, priority 2017, dated 2023).

B1: UnaG (CΔ0)-NLuc (NΔ1) fusion protein: Fusion of UnaG (CΔ0) and NLuc (NΔ1) at the KpnI site, linker GT; amino acid sequence SEQ ID NO: 12 (protein)
chain: GGSGMVEKFVGTWKIADSHNFGEYLKAIGAPKELSDGGDATTPTLYISQKDGDKMTVKIENGPPTFLDTQVKFKLGEEFDEFPSDRRKGVKSVVNLVGEKYVQKWDGKETTYVREIKDGKLVVTLTMGDVVAVRSYRRATEGTVFTLEDFVGDWRQTAGYNLDQVLEQGGVSSLFQNLGVSVTPIQRIVLSGENGLKIDIHVIIPYEGLSGDQMGQIEKIFKVVYPVDDHHFKVILHYGTLVIDGVTPNMIDYFGRPYEGIAVFDGKKITVTGTLWNGNKIIDERLINPDGSLLFRVTINGVTGWRLCERILA
modifications: UnaG(C 0)-NLuc(N 1)

Columns and labels:
UnaG protein = UnaG protein (UniProtKB/Swiss-Prot: P0DM59.1, GenBank: AB763906.1); conditions: binding ability to indirect bilirubin; Kumagai et al., Cell 2013, 153, 1602-1611; read-out: dissociation constant; cited from earlier work
[1] = Room-temperature storage of lyophilized samples, bilirubin affinity re-measured; format: physicochemical; conditions: lyophilized sample stored at room temperature; FIG. 5
Protocol: 500 μL of the purified UnaG (CΔ0)-NLuc (NΔ1) fusion protein was added to a 15-mL Falcon tube and frozen with liquid nitrogen. Thereafter, a powder of the protein solution was obtained by a lyophilizer. The powder was stored at room temperature.
After the preparation of the lyophilized samples, in order to investigate how long the activity is maintained, the lyophilized samples that had been […] were stored at room temperature every few days, and the affinity for bilirubin was measured according to the method described in the above item 7.

| Molecule | Kd (UnaG protein) | activity (affinity for bilirubin) after storage [1] |
| --- | --- | --- |
| C=CC1=C(C)/C(=C/c2[nH]c(Cc3[nH]c(/C=C4\NC(=O)C(C)=C4C=C)c(C)c3CCC(=O)O)c(CCC(=O)O)c2C)NC1=O [bilirubin] | 98 pM |  |
| B1 |  | activity was maintained |
